According to patent publication US20130217722A1, “NOVEL COMPOUND USEFUL FOR THE TREATMENT OF DEGENERATIVE AND INFLAMMATORY DISEASES” (priority 2012, published 2013):

Key:
[1] = target: T1, Recombinant human TYK2 catalytic domain (Homo sapiens, UniProt P29597); assay: TYK2 inhibition assay (polyGT substrate); type: biochemical
T1 construct: Recombinant human TYK2 catalytic domain (amino acids 871-1187; catalog number 08-147) was purchased from Carna biosciences; purchased Carna Biosciences 08-147
T1 sequence (P29597 871-1187): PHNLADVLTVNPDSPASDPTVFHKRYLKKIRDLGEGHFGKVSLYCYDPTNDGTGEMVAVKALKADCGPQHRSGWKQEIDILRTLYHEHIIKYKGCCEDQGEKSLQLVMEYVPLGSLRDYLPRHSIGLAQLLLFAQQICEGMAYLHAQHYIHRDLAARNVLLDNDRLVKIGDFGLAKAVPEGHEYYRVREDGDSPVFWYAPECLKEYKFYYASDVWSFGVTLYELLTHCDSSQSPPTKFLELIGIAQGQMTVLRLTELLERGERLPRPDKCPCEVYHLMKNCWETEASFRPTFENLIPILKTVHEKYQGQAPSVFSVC
Description: Recombinant human TYK2 catalytic domain (amino acids 871-1187; catalog number 08-147) was purchased from Carna biosciences. 5 ng of TYK2 was incubated with 12.5 μg polyGT substrate (Sigma catalog number P0275) in kinase reaction buffer (25 mM Hepes pH 7.2, 50 mM NaCl, 0.5 mM EDTA, 1 mM DTT, 5 mM MnCl2, 10 mM MgCl2, 0.1% Brij-35, 0.1 μM non-radioactive ATP, 0.125 μCi ^33P-gamma-ATP (GE Healthcare, catalog number AH9968) final concentrations) with or without 5 μL containing test compound or vehicle (DMSO, 1% final concentration), in a total volume of 25 μL, in a polypropylene 96-well plate (Greiner, V-bottom). After 90 min at 30° C., reactions were stopped by adding 25 μL/well of 150 mM phosphoric acid. […] 40 ^μL/well of Microscint-20 was added, the top of the plates was sealed and readout was performed using the Topcount (Perkin Elmer). Kinase activity was calculated by subtracting counts per min (cpm) obtained in the presence of a positive control inhibitor (10 μM staurosporine) from cpm obtained in the presence of vehicle. The ability of a test compound to inhibit this activity was determined as:
Percentage inhibition=((cpm determined for sample with test compound present−cpm determined for sample with positive control inhibitor) divided by (cpm determined in the presence of vehicle−cpm determined for sample with positive control inhibitor))*100. […]

JAK1 = target: T2, JAK1 (Homo sapiens, UniProt P23458); assay: JAK1 Ki determination assay; type: biochemical; details: Lineweaver-Burk, varying ATP; read-out: Ki against JAK1
T2 construct: Recombinant human JAK1 (catalytic domain, amino acids 866-1154; catalog number PV4774) was purchased from Invitrogen; purchased Invitrogen PV4774
Description: For the determination of Ki, different amounts of compound were mixed with the enzyme and the enzymatic reaction was followed as a function of ATP concentration. The Ki was determined by means of double reciprocal plotting of Km vs compound concentration (Lineweaver-Burk plot). 1 ng of JAK1 (Invitrogen, PV4774) is used in the assay. The substrate was 50 nM Ulight-JAK-1 (Tyr1023) Peptide (Perkin Elmer, TRF0121) The reaction is performed in 25 mM MOPS pH 6.8, 0.01%, 2 mM DTT, 5 mM MgCl2 Brij-35 with varying concentrations of ATP and compound. Phosphorylated substrate was measured using an Eu-labeled anti-phosphotyrosine antibody PT66 (Perkin Elmer, AD0068) as described in 1.1.2. Readout was performed on the envision (Perkin Elmer) with excitation at 320 nm and emission followed at 615 nm and 665 nm.

JAK2 = target: T3, JAK2 (Homo sapiens, UniProt O60674); assay: JAK2 Ki determination assay (kinase tracer binding); details: kinase tracer 236 binding; read-out: Ki against JAK2
T3 construct: Recombinant human JAK2 catalytic domain (amino acids 808-1132; catalog number PV4210) was purchased from Invitrogen; purchased Invitrogen PV4210
Description: JAK2 (Invitrogen, PV4210) was used at a final concentration of 5 nM. The binding experiment was performed in 50 mM Hepes pH 7.5, 0.01% Brij-35, 10 mM MgCl2, 1 mM EGTA using 25 nM kinase tracer 236 (Invitrogen, PV5592) and 2 nM Eu-anti-GST (Invitrogen, PV5594) with varying compound concentrations. Detection of tracer was performed according to the manufacturer's procedure.

T2 sequence (P23458 866-1154): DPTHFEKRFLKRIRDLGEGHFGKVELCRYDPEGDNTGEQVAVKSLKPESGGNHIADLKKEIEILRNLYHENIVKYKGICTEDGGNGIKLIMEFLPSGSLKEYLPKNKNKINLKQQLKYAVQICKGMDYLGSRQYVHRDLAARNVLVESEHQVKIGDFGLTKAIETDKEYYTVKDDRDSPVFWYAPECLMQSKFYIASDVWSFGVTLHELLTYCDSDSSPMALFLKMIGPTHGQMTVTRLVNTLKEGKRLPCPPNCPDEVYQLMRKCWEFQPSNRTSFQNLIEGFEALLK
T3 sequence (O60674 808-1132): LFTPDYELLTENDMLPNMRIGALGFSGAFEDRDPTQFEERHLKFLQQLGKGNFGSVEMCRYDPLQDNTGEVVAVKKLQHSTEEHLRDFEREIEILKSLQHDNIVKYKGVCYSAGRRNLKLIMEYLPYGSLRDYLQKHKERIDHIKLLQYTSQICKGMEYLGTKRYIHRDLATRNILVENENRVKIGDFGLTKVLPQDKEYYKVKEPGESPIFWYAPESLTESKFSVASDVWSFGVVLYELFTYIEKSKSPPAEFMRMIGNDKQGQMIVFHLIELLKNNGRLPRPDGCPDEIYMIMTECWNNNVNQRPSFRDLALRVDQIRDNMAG

- JAK1 selectivity vs TYK2 [1]: 9 fold
- Ki (JAK1): 3.69 nM
- Ki (JAK2): 25.1 nM
Structure (SMILES): CCc1cc(C2=CCN(C(=O)CC#N)CC2)ccc1N(C)c1cc2c(cn1)ncn2C [Compound 1]
